Where a name gives a salt, the structure may show the parent alone.
Legend:
[^3 H]-GABA uptake = Inhibition of [^3 H]-GABA uptake in vitro (Male Wistar rat cortical tissue homogenate); type: biochemical; settings: tris HCl buffer pH 7.5, 60 min at 30° C.
Experimental: Values for in vitro inhibition of [^3 H]-GABA uptake for these compounds were assessed essentially by the method of Fjalland (Acta Pharmacol.Toxicol. 42 (1978) 73-76). Male Wistar rat cortical tissue was gently homogenized by hand using a glass/PTFE homogenizer in 10 volumes of 0.32 M sucrose. Incubation was performed in a 40 mM tris HCl buffer (pH 7.5 at 30° C.) containing […], […], 4 mM MgSO4, 2.3 mM CaCl2 and 10 mM glucose, for 60 min. at 30° C.) Values for inhibition of GABA uptake for some representative compounds are recorded in Table I.

GABA uptake = settings: cited from earlier work; for inhibition of GABA uptake, oral activity: Yunger, L. M. et al., J. Pharm. Exp. Therap. 228 (1984) 109
[1] = background art; cited from earlier work

| Compound | IC50 ([^3 H]-GABA uptake) | inhibition of GABA uptake, oral activity (GABA uptake) | also measured |
| --- | --- | --- | --- |
| O=C(O)[C@@H]1CCCN(CCOCCN(c2ccccc2)c2ccccc2)C1 [Example 2, (R)-N-(2-(2-(Diphenylamino)ethoxy)ethyl)-3-piperidinecarboxylic acid hydrochloride] | 108 nM | – | – |
| O=C(O)[C@@H]1CCCN(CCCCCCN(c2ccccc2)c2ccccc2)C1 [Example 4, (R)-N-(6-(Diphenylamino)-1-hexyl)-3-piperidinecarboxylic acid hydrochloride] | 670 nM | – | – |
| O=C(O)[C@@H]1CCCN(CCCCCCCN(c2ccccc2)c2ccccc2)C1 [Example 8, (R)-N-(7-(Diphenylamino)-1-heptyl)-3-piperidinecarboxylic acid hydrochloride] | 222 nM | – | – |
| O=C(O)[C@@H]1CCCN(CCOCCC(c2ccccc2)c2ccccc2)C1 [Example 14, (R)-N-(2-(3,3-Diphenyl-1-propyloxy)ethyl)-3-piperidinecarboxylic acid hydrochloride] | 51 nM | – | – |
| O=C(O)C1=CCCN(CCOCCC(c2ccccc2)c2ccccc2)C1 [Example 16, N-(2-(3,3-Diphenyl-1-propyloxy)ethyl)-1,2,5,6-tetrahydro-3-pyridinecarboxylic acid hydrochloride] | 49 nM | – | – |
| O=C(O)[C@@H]1CCCN(CCOCCC(c2ccccc2)c2cccc(C(F)(F)F)c2)C1 (stereo partly drawn) [Example 18, (R)-N-(2-(3-Phenyl-3-(3-(trifluoromethyl)phenyl)-1-propyloxy)ethyl)-3-piperidinecarboxylic acid hydrochloride] | 43 nM | – | – |
| O=C(O)C1CCCN(CCC=C(c2ccccc2)c2ccccc2)C1 (stereo not drawn) [SK&F 89976A, N-(4,4-diphenyl-3-buten-1-yl)nipecotic acid] | – | orally active inhibitors of GABA uptake | – |
| O=C(O)C1=CCCN(CCC=C(c2ccccc2)c2ccccc2)C1 [SK&F 100330A, N-(4,4-diphenyl-3-buten-1-yl)guvacine] | – | orally active inhibitors of GABA uptake | – |
| O=C(O)CC1CCN(CCC=C(c2ccccc2)c2ccccc2)C1 (stereo not drawn) [SK&F 100561, N-(4,4-diphenyl-3-buten-1-yl)homo-β-proline] | – | orally active inhibitors of GABA uptake | – |
| O=C(O)C1CCCN(CCC=C(c2ccccc2)c2cccs2)C1 (stereo not drawn) [SK&F 100604J, N-(4-phenyl-4-(2-thienyl)-3-buten-1-yl)nipecotic acid] | – | orally active inhibitors of GABA uptake | – |
| O=C(O)C1CCCNC1 (stereo not drawn) [nipecotic acid, piperidine-3-carboxylic acid] | – | – | inhibitor of GABA uptake from the synaptic cleft into presynaptic nerve terminals and glial cells (GABA uptake; background art): well-known and potent inhibitor of GABA uptake; ability to cross the blood-brain barrier [1]: unable to cross the blood-brain barrier |
